For data set [1], the system named is astrocytes differentiated from human neural stem cells. Particulars: 500 nM, 5 h, 37 °C. As for the experimental part: (§1) Human neural stem cells (hNSCs) derived from human embryonic stem cells (hESCs) were differentiated to neurons or astrocytes. […] Cells were allowed to differentiate into desired lineage for three weeks before the addition of peptides. The peptides were individually added to 2 mL Neurobasal medium to a final concentration of 500 nM and incubated at 37 °C for 5 h. The medium was removed, and the cells were subsequently lysed using 300 µL of Pierce™ lysis buffer (ThermoFisher Scientific Cat. No. 87787) per well. Samples were kept at −20 °C pending analysis. The uptake of peptides was determined using the total cellular-to-unbound medium concentrations ratio, Kp,u,cell (mL/g total protein), according to Equation (11). (11) Kp,u,cell=Ccell/Cu,medium=Acell/Vcell/Cu,medium where Acell (nanomoles per g total protein) is the total amount of peptide in the cell lysate normalized by the total protein content and estimated volume of the cells. Total protein concentration (mg/mL) in the cell lysate was determined using a NanoDrop 2000C (ThermoFisher, Waltham, MA, USA) by measuring the absorbance at 280 nm. Vcell was estimated using the value of 6.5 µL/mg protein by analogy of HEK293 cells. […] The parameter Kp,u,cell (mL per g of total protein at 5 h) is a partition coefficient between the buffer and the cell culture, where the fraction in the buffer has no binding, but the measured concentration in the cells is a composite of both uptake into the cells and binding to both the cell surface and intra-cellular components. This parameter is thereby similar to Vu,brain as it also gives a description of both binding and uptake processes.
(§2) For estimation of the extent of transport across the cellular membrane, the unbound intracellular-to-extracellular ratio, Kp,uu,cell was calculated as described below:(12) Kp,uu,cell=Kp,u,cell×fu,cell

Data set [2] has as its system neurons differentiated from human neural stem cells. Particulars: for Total neuronal cell-to-unbound medium concentration ratio, Kp,u,cell,N: neurons, 500 nM, 5 h, 37 °C. As for the experimental part:
as §1, §2

Another data set has as its system brain slices. Here is the method:
(§3) The brain slice assay was performed according to previously published protocols. Three animals per study group were investigated. All glassware used in the brain slice experiments was silanized using dimethyldichlorosilane in heptane to avoid non-specific binding of the cyclic peptides to glass. In short, the silanization solution was added to the glassware and left there for one hour, after which the glassware was rinsed with methanol and then placed in a heating cabinet to cure. Slicing was performed with a Leica VT1200 microtome slicer (Leica Microsystems, Wetzlar, Germany). […] At the end of the incubation, two 200 µL samples of aECF were taken and mixed with blank brain homogenate (1:4, w:v) for assessment of unbound buffer concentration, Cbuffer (nanomoles per mL). Thereafter, the brain slices were individually sampled, carefully dried on filter paper, weighed, and homogenized in aECF (1:9, w:v) to determine the total amount of drug in the slice, Aslice (nanomoles per g brain). The density of brain tissue was assumed to be 1 g/mL. The key assumption of the assay is achievement of equilibrium during 5 h incubation, with Cbuffer being equal and representing unbound brain slice interstitial concentration. Samples of aECF (200 µL) were also taken from the scintillation vial without brain slices at the start and at the end of the incubation to determine the relative recovery and thermostability of the peptides. The unbound volume of distribution in brain, Vu,brain (mL/g brain), was calculated using Equation (3). (3) Vu,brain =Aslice−Vi×Cbuffer/Cbuffer(1−Vi) where Vi is the volume of buffer film that coats the slice and equals to 0.094 mL/g brain [39].
(§4) To study the potential mechanism of intracellular distribution of the peptides, several exploratory experiments were performed (Figure 2a). […] In addition, the role of endocytosis and pH partitioning-driven distribution was investigated. The slices were pre-incubated for 30 min with the blockers before the addition of the peptides. Dynasore was used as an inhibitor of dynamin-dependent endocytosis, which is involved in both clathrin and caveolin vesicle formation (Figure 3a). […] Due to high cytotoxicity, the concentration of […] was chosen based on previous studies.
(§5) The unbound intracellular-to-extracellular concentration ratio, Kp,uu,cell, was calculated according to Equation (14) by combining the brain slice derived, Vu,brain, with the measurement of brain tissue binding, fu,brain, from the tissue homogenate study. This allows elucidation of whether the uptake into the brain cells is driven mainly by passive processes and intracellular binding and/or partitioning, such as lysosomal trapping, or by active uptake into the cells. (14) Kp,uu,cell=fu,brain×Vu,brain

The conditions of data set [3]: rat, Kp,uu,cell. Here is the method: as §3, §4, §5
The nature of data set [4]: Simulation of unbound brain exposure (two-compartment model, Berkeley Madonna). Details: species or system rat. The note with it: parameter used in simulation; for clearance: read-out: Systemic clearance, CL (converted); for Vd: rat. As for the experimental part: The simulation was performed at given initial total plasma concentration to be equal to steady-state concentrations obtained in the neuroPK study (Table 2), utilizing the parameters listed in Supplementary Material Table S3. A two-compartment model consisting of blood and brain compartments with a focus on unbound concentrations was characterized (Supplementary Material Figure S1 describes the structure of the model and the codes).

The subject of a further data set is plasma proteins. Particulars: undiluted rat plasma, 1 µM, equilibrium dialysis 6 h 37 °C. (In equilibrium dialysis only unbound substance equilibrates across the membrane.)
Where [5] appears, read: rat brain slices, 200 nM, 5 h, 37 °C.
[6] abbreviates: Unbound intracellular-to-extracellular (interstitial) concentration ratio, brain slices 37 °C, fu,brain × Vu,brain.
Where [7] appears, read: rat weight 0.3 kg, read-out: Apparent volume of distribution, Vd.
Where [8] appears, read: read-out: Apparent volume of distribution unbound, Vd,u.

“And” between values parts separate entries of the source, which are not always exact repeats. Equal values may be shown once. Read-outs that look alike come from different tables or passages of the source.

Experimental for plasma proteins: Peptide binding to plasma proteins, brain tissue homogenate, and lung tissue homogenate as well as to neuronal and astrocyte cell culture homogenates was investigated using equilibrium dialysis [47]. Undiluted plasma and brain from three peptide-naïve rats were used in the experiment. The brain homogenate was prepared by homogenizing 1 part brain with 4 parts of phosphate-buffered saline (PBS, pH 7.4). […] Semi-permeable membranes with a molecular weight cut-off of 12–14 kDa were used and placed in an HTD96b apparatus (HTDialysis, Gales Ferry, CT, USA). The undiluted plasma and respective homogenates were spiked with individual peptide to a concentration of 1 µM and were dialyzed against PBS (pH 7.4). Five technical replicates were prepared per biological replicate. The experiment was run for 6 h at 37 °C in a MaxQ4450 shaker (Thermo Fisher Scientific, NinoLab, Sweden) at 200 rpm. […] Aliquots (80 µL) were taken from the buffer and plasma/homogenate sides. To compensate for any differences in matrix during bioanalysis, the plasma and homogenate samples were mixed with equal volumes of blank buffer, and the buffer samples were mixed with an equal volume of relevant blank plasma/homogenate. Spiked plasma and respective homogenate samples were incubated to control for relative recovery and thermal stability of the peptides in respective matrices.
The unbound fraction in undiluted plasma was calculated using Equation (5), where Cbuffer is the unbound concentration of peptide in the buffer and Cplasma is the total concentration of peptide in plasma at 6 h. The binding of peptide in various homogenates was assessed in two steps. First, the fraction of unbound peptide in the diluted homogenate, fu,h,D, was calculated using Equation (6), where Chomogenate is the total concentration of peptide in respective homogenate at 6 h. Second, the correction for the dilution was implemented as described in Equation (7), where D is the dilution factor used in the preparation [47]. D was 5 for brain and lung homogenates and on average 35.3 for the cell culture studies, as determined based on the total protein content and the total volume of lysate. (5) fu,plasma=Cbuffer/Cplasma (6) fu,h,D=Cbuffer/Chomogenate (7) fu,tissue/cell=1/D/((1/fu,h,D )−1)+1/D

For the molecule `CC(C)C[C@@H]1NC(=O)CNC(=O)[C@H](CC(N)=O)NC(=O)[C@H](CCCNC(=N)N)NC(=O)[C@H]([C@@H](C)O)NC(=O)[C@@H]2CSSC[C@@H]3NC(=O)[C@H]([C@@H](C)O)NC(=O)CNC(=O)CNC(=O)[C@H](C(C)C)NC(=O)[C@@H]4CSSC[C@H](NC(=O)[C@H]([C@@H](C)O)NC(=O)[C@H](CSSC[C@H](NC(=O)[C@H](C(C)C)NC(=O)[C@@H]5CCCN5C1=O)C(=O)NCC(=O)N[C@@H](CCC(=O)O)C(=O)N[C@@H]([C@@H](C)O)C(=O)N4)NC(=O)CNC(=O)[C@@H]1CCCN1C(=O)[C@H]([C@@H](C)O)NC(=O)[C@H](CC(N)=O)NC3=O)C(=O)N[C@@H](CO)C(=O)N[C@@H](Cc1c[nH]c3ccccc13)C(=O)N1CCC[C@H]1C(=O)N[C@@H](C(C)C)C(=O)N2` [Kalata B1], the “Total astrocyte cell-to-unbound medium concentration ratio, Kp,u,cell,A” value in data set [1] was 94.73 ± 3.08 mL/g total protein; in data set [1] (listed as kalata B1), 94.7 mL/g total protein. Moreover, the “Relative reduction of Kp,uu,cell in cell culture versus tissue slice experiments” value in data set [2] (neuron and astrocyte cultures vs brain slices) is on record as “ca. 3 fold”. In data set [2] (neurons and astrocytes vs brain slices), the “Difference between Kp,u,cell (neurons, astrocytes) and Vu,brain (brain slice assay)” value is recorded as “less than 2 fold”. In addition, the “Total neuronal cell-to-unbound medium concentration ratio, Kp,u,cell,N” value in data set [2] is reported as 135.35 ± 21.2 mL/g total protein. Further, in the data set on brain slices (brain slices), the “Reduction in Kp,uu,cell from 37 °C to 4 °C” value was found to be 138 fold. Also, the “Intra-brain distribution (Vu,brain) relative to SFTI-1” value in the data set on brain slices (brain slices 37 °C) is “ca. 350 fold”. For the same molecule, the “Unbound intracellular-to-extracellular (interstitial) concentration ratio, Kp,uu,cell” value in the data set with brain slices (brain slices 37 °C, fu,brain × Vu,brain) is 9.73 ± 3.35. The “Unbound volume of distribution in brain, Vu,brain” value (from here on “Unbound volume of distribution”) in the data set with brain slices (brain slices incubated at 4 °C) is 1.12 mL/g brain; in the data set on brain slices (setting [5]), 152 ± 29.9 mL/g brain; with brain slices (rat brain slices, 200 nM, 5 h, 37 °C, listed as kalata B1), 152 mL/g brain. The “Reduction in Vu,brain after pre-incubation with dynasore” value in the data set on brain slices (brain slices, dynasore 50 µM, 30 min pre-incubation) came out at 23%. For the same molecule, the Kp uu in data set [3] (brain slices incubated at 4 °C) came to 0.0721; in data set [3] (setting [6]), 9.7. Moreover, the clearance in data set [4] (rat weight 0.3 kg) is 0.48 mL/min. Besides, the Vd is 0.0966 L in data set [4] (setting [7]) and 0.029 L in data set [4] (setting [8]). Besides, the “Fraction unbound in plasma, fu,plasma” value in the data set with plasma proteins came to 0.299 ± 0.095.

On to `CC[C@H](C)[C@@H]1NC(=O)[C@@H]2CCCN2C(=O)[C@@H]2CCCN2C(=O)[C@H]([C@@H](C)CC)NC(=O)[C@H](CO)NC(=O)[C@H](CCCCN)NC(=O)[C@H]([C@@H](C)O)NC(=O)[C@@H]2CSSC[C@H](NC1=O)C(=O)N[C@@H](Cc1ccccc1)C(=O)N1CCC[C@H]1C(=O)N[C@@H](CC(=O)O)C(=O)NCC(=O)N[C@@H](CCCNC(=N)N)C(=O)N2` [SFTI-1, sunflower trypsin inhibitor-1], for which the “Total astrocyte cell-to-unbound medium concentration ratio, Kp,u,cell,A” value in data set [1] was 19.0 mL/g total protein and 19.02 ± 4.34 mL/g total protein. Also, the “Kp,u,cell fold lower than for kalata B1” value in data set [2] (neurons and astrocytes) is reported as “up to 5 fold”. Further, in data set [2], the “Total neuronal cell-to-unbound medium concentration ratio, Kp,u,cell,N” value is 31.11 ± 12.46 mL/g total protein. Also, the “Unbound volume of distribution” value with brain slices (brain slices incubated at 4 °C) worked out at 0.56 mL/g brain. For the same molecule, the “Unbound volume of distribution” value with brain slices (setting [5]) is 0.436 mL/g brain and 0.436 ± 0.064 mL/g brain. Moreover, the Kp uu in data set [3] (mean values across experimental conditions, brain slices, 4 °C, inhibition of endocytosis, or dissipation of the pH gradient) is 0.3 to 0.47. Further, in data set [3] (setting [6]), the Kp uu amounted to 0.415 ± 0.079. Moreover, in data set [4], the CLin is 0.0017 L/h; the CLout is recorded as 0.01317 L/h; the “Systemic clearance unbound, CLu” value is listed as 0.0307 L/h; the “Total steady-state plasma concentration, Cplasma,ss” value is reported as 0.6052 mg/L. The “Unbound steady-state plasma concentration, Cplasma,u,ss” value in data set [4] is recorded as 0.5665 mg/L. Moreover, in data set [4] (rat weight 0.3 kg), the clearance was 0.545 mL/min. Besides, the Vd in data set [4] (setting [7]) is 0.0573 L. In data set [4] (setting [8]), the Vd is 0.054 L. Moreover, the “Fraction unbound in plasma, fu,plasma” value in the data set with plasma proteins came to 0.936 ± 0.038.

The record behind these values is PMC10222203 (Pharmaceutics, 2023).
